The test deals with T1, Solute carrier family 12 member 5 (Homo sapiens, UniProt Q9H2X9).
T1 sequence (Q9H2X9 whole entry): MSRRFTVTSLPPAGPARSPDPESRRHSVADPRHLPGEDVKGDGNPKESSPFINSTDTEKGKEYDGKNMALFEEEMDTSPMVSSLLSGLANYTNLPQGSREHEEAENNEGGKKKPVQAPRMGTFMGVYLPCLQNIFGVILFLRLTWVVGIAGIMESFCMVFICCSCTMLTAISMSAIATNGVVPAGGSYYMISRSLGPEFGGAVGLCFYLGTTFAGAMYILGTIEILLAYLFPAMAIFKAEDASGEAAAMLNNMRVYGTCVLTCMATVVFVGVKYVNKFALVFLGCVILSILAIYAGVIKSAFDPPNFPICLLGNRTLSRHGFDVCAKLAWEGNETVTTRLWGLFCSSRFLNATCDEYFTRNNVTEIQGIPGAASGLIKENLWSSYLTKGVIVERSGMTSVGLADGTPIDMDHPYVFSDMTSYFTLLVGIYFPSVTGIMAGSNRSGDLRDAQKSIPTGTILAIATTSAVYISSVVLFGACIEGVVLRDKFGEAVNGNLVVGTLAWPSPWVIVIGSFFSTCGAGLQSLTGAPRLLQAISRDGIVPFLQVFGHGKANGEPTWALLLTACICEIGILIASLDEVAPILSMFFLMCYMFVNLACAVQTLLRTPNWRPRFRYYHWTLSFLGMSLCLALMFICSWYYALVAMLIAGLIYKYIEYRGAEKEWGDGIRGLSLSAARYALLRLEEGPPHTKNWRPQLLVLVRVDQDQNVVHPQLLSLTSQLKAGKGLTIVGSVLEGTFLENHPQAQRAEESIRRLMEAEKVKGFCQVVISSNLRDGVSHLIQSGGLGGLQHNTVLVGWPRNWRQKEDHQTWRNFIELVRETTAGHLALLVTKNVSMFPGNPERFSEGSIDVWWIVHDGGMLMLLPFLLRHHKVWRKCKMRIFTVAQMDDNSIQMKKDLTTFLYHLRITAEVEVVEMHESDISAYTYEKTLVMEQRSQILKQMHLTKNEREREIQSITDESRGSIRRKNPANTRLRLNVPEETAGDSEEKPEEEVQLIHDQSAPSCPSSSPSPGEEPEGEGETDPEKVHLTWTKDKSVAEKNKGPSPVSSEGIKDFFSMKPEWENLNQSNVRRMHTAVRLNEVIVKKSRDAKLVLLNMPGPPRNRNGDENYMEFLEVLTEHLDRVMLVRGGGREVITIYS
The test can be described thus: KCC2 modulator potency by thallium flux, dose response, cell-based, HEK293 KCC2, FluoZin-2 fluorescence (AID 1736).

Where [1] appears, read: inactive by the depositor's call.

Take `Cc1ccc(/C=C2\SC(=S)N(/N=C/C3C=C([N+](=O)[O-])C=CC3=O)C2=O)o1` (stereo unspecified) [(5Z)-5-[(5-methylfuran-2-yl)methylidene]-3-[[(E)-(3-nitro-6-oxocyclohexa-2,4-dien-1-ylidene)methyl]amino]-2-sulfanylidene-1,3-thiazolidin-4-one]: a half-maximal response (EC50) required 11.8 µM.

Regarding `Oc1ccccc1CN=Nc1nc2ccccc2o1` [(6E)-6-[(1,3-benzoxazol-2-ylhydrazo)methylidene]-1-cyclohexa-2,4-dienone], it took 98.9 µM to reach a half-maximal effect (EC50).

As for `O=C(/C=C/c1ccco1)N1CCC(Cc2ccccc2)CC1` [(E)-1-(4-benzylpiperidin-1-yl)-3-(furan-2-yl)prop-2-en-1-one], a half-maximal response (EC50) required 6.56 µM.

On to `CC1Cc2ccccc2N1C(=O)/C=C/c1cccc(F)c1` (stereo unspecified) [(E)-3-(3-fluorophenyl)-1-(2-methyl-2,3-dihydroindol-1-yl)-2-propen-1-one], for which the half-maximal effective concentration (EC50) (usually the concentration needed to bring the measured effect to its halfway point) came out at 129 µM.

Turning to `COc1ccc(-c2nnc(S/C(=C/c3ccc(Cl)cc3)C(=O)O)o2)cc1` [(E)-3-(4-chlorophenyl)-2-[[5-(4-methoxyphenyl)-1,3,4-oxadiazol-2-yl]sulfanyl]prop-2-enoic acid], the concentration giving a half-maximal response (EC50) is 0.287 µM.

Compound `O=C(O)/C=C/c1cn(Cc2ccccc2Cl)nc1-c1ccccc1` [(E)-3-[1-(2-chlorobenzyl)-3-phenyl-pyrazol-4-yl]acrylic acid] returned an EC50 of 3.26 µM. Against the preceding compound, the EC50 is about 11-fold higher.

Compound `O=C(O)/C=C/c1cn(Cc2ccccc2)nc1-c1ccc(Cl)cc1` [(E)-3-[1-benzyl-3-(4-chlorophenyl)pyrazol-4-yl]acrylic acid] displayed an EC50 under setting [1] of 26.3 µM.

In turn, `Cc1ccc(-c2nn(Cc3ccccc3)cc2/C=C/C(=O)O)cc1` [(E)-3-[1-benzyl-3-(4-methylphenyl)pyrazol-4-yl]prop-2-enoic acid] had an EC50 under setting [1] of 12.1 µM.

As for `O=C(O)CC/C(=C\c1ccccc1[N+](=O)[O-])c1nc2ccccc2s1` [(E)-4-(1,3-benzothiazol-2-yl)-5-(2-nitrophenyl)-4-pentenoic acid], a half-maximal response (EC50) required 500 µM.

`O=C(O)CC/C(=C\c1ccc(N2CCOCC2)c([N+](=O)[O-])c1)c1nc2ccccc2s1` [(E)-4-(1,3-benzothiazol-2-yl)-5-(4-morpholin-4-yl-3-nitro-phenyl)pent-4-enoic acid] displayed an EC50 of 2.66 µM.

Take `COc1ccccc1N1CCN(C(=S)NC(=O)/C=C/c2ccccc2)CC1` [(E)-N-[4-(2-Methoxy-phenyl)-piperazine-1-carbothioyl]-3-phenyl-acrylamide]: the response was half-maximal at 20 µM (EC50).

The compound `CC[C@H](CO)Nc1nc(Nc2cccc(Cl)c2)c2ncn(C(C)C)c2n1` [(R)-2-(6-(3-chlorophenylamino)-9-isopropyl-9H-purin-2-ylamino)butan-1-ol] registered an EC50 of 9.54 µM.

For the compound `O=C(CNC(=O)/C(=C\c1ccc(Br)cc1)NC(=O)c1ccccc1)OCc1ccccc1` [(phenylmethyl) 2-[[(E)-2-benzamido-3-(4-bromophenyl)prop-2-enoyl]amino]ethanoate], the EC50 worked out at 0.993 µM.

`O=C(CNC(=O)/C(=C/c1ccccc1)NC(=O)c1ccc(Br)cc1)OCc1ccccc1` [(phenylmethyl) 2-[[(Z)-2-[(4-bromophenyl)carbonylamino]-3-phenyl-prop-2-enoyl]amino]ethanoate] displayed a concentration for a half-maximal effect (EC50) of 1.15 µM. The EC50 values of the last two compounds are within 1.5-fold of each other.

For the compound `CCCCNc1cc(C(=O)O)cc(S(N)(=O)=O)c1Oc1ccccc1` [Fordiuran], the EC50 worked out at 4.69e-05 µM. This EC50 lies about 25000-fold lower than the previous one.

The compound `COc1ccccc1-n1cnc2cc(NS(=O)(=O)c3ccccc3)ccc21` [MLS000032522] displayed a half-maximal effective concentration (EC50) of 1.9 µM.

In turn, `Cc1ccc2c(c1)nnn2C1CCN(S(=O)(=O)c2cccc(S(=O)(=O)N(C)C)c2)CC1` [MLS000033642] came in with an EC50 of 3.38 µM.

Consider `O=C(CSc1ncccc1-c1nc2ccccc2[nH]1)N1CCN(c2ccccc2F)CC1` [MLS000033700], for which the response was half-maximal at 34.5 µM (EC50).

Turning to `N#Cc1ccccc1NC(=O)CSc1nccn1CCc1ccccc1` [MLS000051858], the EC50 amounted to 3.24 µM.

Compound `Cc1nn(-c2nc3ccccc3[nH]2)c(N)c1-c1ccccc1` [MLS000063763] gave a concentration for a half-maximal effect (EC50) of 21.3 µM.

`O=S(=O)(NCCc1ccccc1F)c1cccc(S(=O)(=O)N2CCOCC2)c1` [MLS000076090] had a half-maximal effective concentration (EC50) of 1.65 µM. This EC50 is about 13-fold lower than that of the compound before.

For `Cc1cccc(N2CCN(C(=O)CCCn3c(=S)[nH]c4cc5c(cc4c3=O)OCO5)CC2)c1C` [MLS000095366], under setting [1], the EC50 came out at 22.6 µM.

In turn, `O=C(NCCc1csc(-c2ccccc2)n1)c1cccs1` [MLS000102716] returned an EC50 of 174 µM.

In turn, `O=C(Nc1ccc2oc(-c3ccccc3)nc2c1)c1ccncc1` [MLS000109492] returned an EC50 of 4.95 µM.

As to `Cn1c(C(=O)NCCCN2CCN(c3ccccc3F)CC2)cc2c(=O)n(C)c3ccccc3c21` [MLS000118127], the EC50 was 10.3 µM. This EC50 lies about 2.1-fold higher than the previous one.

Consider `Cn1c(C(=O)NCCN2CCN(c3ccccc3F)CC2)cc2c(=O)n(C)c3ccccc3c21` [MLS000118132], for which the response was half-maximal at 3.19 µM (EC50).

The compound `Cc1nn(C)c(C)c1C=C1SC(S)=NC1=O` [MLS000324943] came in with a 50% effective concentration (EC50) of 51.2 µM.

Regarding `O=C(Cc1csc(-c2ccccc2)n1)NCc1ccc(F)cc1` [MLS000336311], the response was half-maximal at 3.59 µM (EC50).

As for `COc1cc(-c2nnc(CSc3nnc(Nc4ccc(C(C)C)cc4)s3)o2)cc(OC)c1OC` [MLS000391281], the EC50 under setting [1] was 2.2 µM. This counts as single-digit micromolar.

As for `CCN(CC)S(=O)(=O)c1ccc(NC(=O)CSc2ncnc3ccccc23)cc1` [MLS000393282], the 50% effective concentration (EC50) came out at 1.1 µM.

In turn, `CN(C)S(=O)(=O)c1ccc(NC(=O)CSc2ncnc3ccccc23)cc1` [MLS000394067] yielded an EC50 under setting [1] of 87700 µM.

As for `CNc1ccc(/C=C(\CCC(=O)O)c2nc3ccccc3s2)cc1[N+](=O)[O-]` [MLS000394200], the concentration for a half-maximal effect (EC50) was 24.6 µM.

The compound `COc1ccc(OC)c2sc(NNC(=O)COc3ccccc3)nc12` [MLS000419249] yielded an EC50 under setting [1] of 2.62 µM.

The compound `CS(=O)(=O)N(CC(=O)N1CCN(c2ccc(F)cc2)CC1)c1ccc(F)c(Cl)c1` [MLS000531433] yielded a half-maximal effective concentration (EC50) of 5.57 µM.

In the case of `Cc1ccc(C(=O)Nc2nc(=O)n(C(=O)c3ccccc3Cl)s2)cc1` [MLS000540480], the response was half-maximal at 3.72 µM (EC50).

`O=C(NNc1nc(-c2ccccc2)cs1)c1ccccc1` [MLS000547345] gave an EC50 of 0.024 µM.

Consider `CCn1c(CCNC(=O)c2cccs2)nnc1SCC(=O)Nc1nc(-c2ccccc2)cs1` [MLS000548611], for which it took 4.57 µM to reach a half-maximal effect (EC50).

`O=[N+]([O-])c1ccccc1C=C[CH+][N-]n1c(-c2ccc(Cl)cc2)n[nH]c1=S` [MLS000555506] registered an EC50 of 23.6 µM.

In turn, `O=C(CC(Cc1ccccc1)c1ccco1)NC1CCCCC1` (stereo unspecified) [MLS000556612] displayed a 50% effective concentration (EC50) of 212 µM.

For the compound `O=C(O)/C=C/c1cn(Cc2ccccc2)nc1-c1ccccc1` [MLS000567315], a half-maximal effect (EC50) was put at 3.77 µM. This EC50 is about 56-fold lower than that of the compound before.

`CNC(=O)/C(=C\C=C\c1ccccc1)NC(=O)c1ccc([N+](=O)[O-])cc1` [MLS000570424] showed a 50% effective concentration (EC50) of 2.8 µM. This EC50 and that of the compound before are within 1.5-fold of each other.

Under setting [1], `O=C(/C=C/c1cccc([N+](=O)[O-])c1)Nc1cccc(NC(=O)c2cccs2)c1` [MLS000574752] displayed an EC50 of 3.68 µM. This lies in the single-digit micromolar range.

In the case of `CCc1ccc(OCCNC(=O)c2ccccc2SCc2ccc(F)cc2)cc1` [MLS000577152], the EC50 stood at 1.38 µM. In other words, the single-digit micromolar range.

Compound `CCCC1=NN2C(=N)/C(=C\c3cc(C)n(-c4cc(C)cc(C)c4)c3C)C(=O)N=C2S1` [MLS000588586] showed a half-maximal effective concentration (EC50) of 6.75 µM.

`CCn1c(SCC(=O)Nc2ccc(Cl)cc2)nc2nc3c(cc2c1=O)CCCC3` [MLS000589154] yielded a 50% effective concentration (EC50) of 28.2 µM.

For `O=C(CSc1ccc(-c2cccs2)nn1)Nc1ccccc1F` [MLS000621184], the midpoint of the response, the EC50, lay at 5.12 µM.

Source of the values: BindingDB's records for doi:10.7270/Q2TX3CSC (Vanderbilt Screening Center for GPCRs, Ion Channels and …, 2009).
